Converted amounts (≈) assume the structure as drawn.
Assays:
[1] = tested on: Klebsiella pneumoniae; assay: Antimicrobial activity against Klebsiella pneumoniae expressing beta-lactamase KPC gene by agar dilution method; format: functional
[2] = tested on: Escherichia coli; assay: Antimicrobial activity against Escherichia coli clinical isolates expressing beta-lactamase KPC gene by agar dilution method; format: functional
[3] = tested on: Escherichia coli; assay: Antimicrobial activity against Escherichia coli DH10B harboring pBCSK plasmid expressing beta-lactamase KPC gene by agar dilution method; format: functional; conditions: K-12 DH10B
[4] = tested on: Escherichia coli; assay: Antimicrobial activity against Escherichia coli DH10B by agar dilution method; format: functional; conditions: K-12 DH10B
[5] = Cmax in human serum at 1 gram, iv; format: ADME, organism-based; parameters: route intravenous
[6] = Protein binding in human serum at 1 gram, iv; format: ADME, organism-based; conditions: read-out: PB (converted)
[7] = Half life in human serum at 1 gram, iv; format: ADME, organism-based
[8] = Drug level in human urine at 500 mg, im bid for 3 days; format: ADME, organism-based; conditions: read-out: Drug uptake

Q: Which MIC50 [1] does the source give for CO[C@@]1(NC(=O)C(C(=O)O)c2ccsc2)C(=O)N2[C@@H](C(=O)O)C(C)(C)S[C@@H]21 (some centres undefined) [TEMOCILLIN] here?
A: The MIC50 was 32 µg/mL (≈ 77.2 µM).

Q: And the MIC90 [1]?
A: Its MIC90 is 32 µg/mL (≈ 77.2 µM).

Q: And the MIC [2]?
A: The MIC was 8 µg/mL (≈ 19.3 µM).

Q: And the MIC [3]?
A: Its MIC is 8 µg/mL (≈ 19.3 µM).

Q: What about the MIC [4] of the same compound?
A: The MIC was 8 µg/mL (≈ 19.3 µM).

Q: What about the Cmax [5] of the same compound?
A: The Cmax was 160 µg/mL.

Q: What about the fraction unbound [6] of the same compound?
A: Its fraction unbound is 0.15.

Q: And the half-life [7]?
A: The half-life was 4 h.

Q: What about the concentration at 72 h [8] of the same compound?
A: The concentration at 72 h was 500 µg/mL.
